Patent US20040162295A1, “Pharmaceutical compound” (priority 2001, published 2004)

Experiments:
[1] = Stability study on crystalline forms (temperature, humidity, light); type: physicochemical; conditions: for Morphological stability: high relative humidity (above 70%)
Description: Notes: % expressed with reference to material stored at −70° C.
% RH means percentage relative humidity.

[2] = Behaviour of the solid in the presence of water; type: physicochemical; conditions: in the presence of water / suspended in distilled water, stirred 24 hours
Description: Stability in the presence of water is desirable in a product intended to be formulated in a pharmaceutical composition using a process that brings it into contact with water, such as a wet granulation process used in the preparation of a tablet.
1.5 g of Form 1 of 1-(indole-6-carbonyl-D-phenylglycinyl)-4-(1-methylpiperidin-4-yl)piperazine difumarate was suspended in 10 ml of distilled water and stirred for 24 hours. The suspension thickened after 5-6 hours, but stirring was continued for the remaining time. The suspension was centrifuged to isolate the solid. The solid was washed with cyclohexane and dried at ambient temperature under vacuum.

Oral exposure = type: in vivo
Factor Xa = Factor Xa (Homo sapiens, UniProt P00742); assay: Factor Xa inhibition; type: biochemical
[3] = Vapor pressure isotherm determination / hygroscopicity; type: physicochemical
Excerpt: The mono hydrochloride salt of 1-(indole-6-carbonyl-D-phenylglycinyl)-4-(1-methylpiperidin-4-yl)piperazine has also been prepared. The monohydrochloride salt was initially obtained as an amorphous solid. This solid was cycled through a vapor pressure isotherm determination, in which the solid initially deliquesced, then dehydrated.
Using a microbalance flow system, the original material was cycled through a vapor pressure isotherm determination, where the material deliquesced, then allowed to deydrate.

[4] = 40° C./75% RH, 7 Days, difumarate
[5] = 40° C./75% RH, 28 Days, difumarate

Chain of Factor Xa (P00742 235-488 limits assumed): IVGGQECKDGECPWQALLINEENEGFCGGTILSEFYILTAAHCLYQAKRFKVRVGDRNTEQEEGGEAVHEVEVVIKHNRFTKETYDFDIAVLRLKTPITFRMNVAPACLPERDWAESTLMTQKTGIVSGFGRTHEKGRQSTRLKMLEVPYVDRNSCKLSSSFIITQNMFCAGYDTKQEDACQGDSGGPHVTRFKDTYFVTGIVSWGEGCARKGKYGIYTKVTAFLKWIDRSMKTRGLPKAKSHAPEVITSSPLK
Chain of Factor Xa (P00742 41-179 partner limits assumed): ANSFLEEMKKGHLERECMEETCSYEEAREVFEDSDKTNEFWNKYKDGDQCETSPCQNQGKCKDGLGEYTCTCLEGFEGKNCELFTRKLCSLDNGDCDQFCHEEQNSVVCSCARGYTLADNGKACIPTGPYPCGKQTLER

Structure (SMILES)	Stability study, % expressed with reference to material stored at −70° C. [1, 4] [%]	Stability study, % expressed with reference to material stored at −70° C. [1, 5] [%]	Stability study, % expressed with reference to material stored at −70° C. ([1]; 70° C., 7 Days, difumarate) [%]	Stability study, % expressed with reference to material stored at −70° C. ([1]; 70° C., 28 Days, difumarate) [%]	Morphological stability [1]	Stability of the crystalline form in the presence of water [2]	also measured
CN1CCC(N2CCN(C(=O)[C@H](NC(=O)c3ccc4cc[nH]c4c3)c3ccccc3)CC2)CC1 [1-(indole-6-carbonyl-D-phenylglycinyl)-4-(1-methylpiperidin-4-yl)piperazine]							Oral exposure (Oral exposure): good; Inhibition of Factor Xa (Factor Xa): potent and selective inhibitor
CN1CCC(N2CCN(C(=O)[C@H](NC(=O)c3ccc4cc[nH]c4c3)c3ccccc3)CC2)CC1.Cl [compound 1, 1-(indole-6-carbonyl-D-phenylglycinyl)-4-(1-methylpiperidin-4-yl)piperazine hydrochloride]							Hygroscopicity ([3]; amorphous and crystalline material): hygroscopic; Behaviour of the solid in vapor pressure isotherm determination ([3]; amorphous solid, microbalance flow system): deliquesced

More lines, main results first:

Stability study, % expressed with reference to material stored at −70° C. [1, 4] [%]	Stability study, % expressed with reference to material stored at −70° C. [1, 5] [%]	Stability study, % expressed with reference to material stored at −70° C. ([1]; 70° C., 7 Days, difumarate) [%]	Stability study, % expressed with reference to material stored at −70° C. ([1]; 70° C., 28 Days, difumarate) [%]	Morphological stability [1]	Stability of the crystalline form in the presence of water [2]	Structure (SMILES)	also measured
99.3	99.6	99.1	99.0	morphologically stable		CN1CCC(N2CCN(C(=O)[C@H](NC(=O)c3ccc4cc[nH]c4c3)c3ccccc3)CC2)CC1.O=C(O)/C=C/C(=O)O.O=C(O)/C=C/C(=O)O [Form 2, 1-(indole-6-carbonyl-D-phenylglycinyl)-4-(1-methylpiperidin-4-yl)piperazine difumarate]	
					tended to convert into a gel	CN1CCC(N2CCN(C(=O)[C@H](NC(=O)c3ccc4cc[nH]c4c3)c3ccccc3)CC2)CC1 [chloroform solvate, 1-(indole-6-carbonyl-D-phenylglycinyl)-4-(1-methylpiperidin-4-yl)piperazine]	
99.6	99.5	99.0	100.2	morphologically stable	converted into Form 2	CN1CCC(N2CCN(C(=O)[C@H](NC(=O)c3ccc4cc[nH]c4c3)c3ccccc3)CC2)CC1.O=C(O)/C=C/C(=O)O.O=C(O)/C=C/C(=O)O [Form 1, 1-(indole-6-carbonyl-D-phenylglycinyl)-4-(1-methylpiperidin-4-yl)piperazine difumarate]	Stability study, % expressed with reference to material stored at −70° C. ([1]; 40° C., 7 Days): 100.5%; Stability study, % expressed with reference to material stored at −70° C. ([1]; 40° C., 28 Days): 99.8%; Stability study, % expressed with reference to material stored at −70° C. ([1]; 50° C., 7 Days): 99.3%; Stability study, % expressed with reference to material stored at −70° C. ([1]; 50° C., 28 Days): 99.4%; Stability study, % expressed with reference to material stored at −70° C. ([1]; Light, 7 Days): 99.7%; Stability study, % expressed with reference to material stored at −70° C. ([1]; Light, 28 Days): 98.9%
